# Data from US12226484B2, “Compositions having improved bioavailability of therapeutics” (TRx Biosciences Limited, priority 2021, dated 2025).
# Test: Formulating procedure: dissolution and stable incorporation in glycerolipid admixture/matrix
# Assay type: physicochemical
# Details: as shown in Example 3
# Description: As a first step, it is first determined whether a selected therapeutic compound can be formulated using 1) glycerolipids including at least one liquid fat (glycerolipid that is liquid at 18° C.) and at least one hard fat (glycerolipid that is solid at 18° C.) and 2) one or more digestion enhancers. In some embodiments, the one or more liquid and hard fats are first heated and the one or more digestion enhancers are solubilized in the glycerolipid admixture. Upon completion of solubility of the digestion enhancers, and if appropriate, the temperature of the admixture can be adjusted and a selected therapeutic compound is then dissolved in this heated admixture to incorporate the compound. […] In some embodiments, the one or more liquid fats are first heated and the one or more digestion enhancers are solubilized in the liquid fats. […] The initial heating step in all procedures is performed at a temperature sufficient to dissolve the one or more digestion enhancers and selected therapeutic compound and can be empirically determined based on the melting point of the selected components. […] Any subsequent adjustment to the heat when one or more liquid fats and/or one or more hart fats are being added to the admixture is performed at a temperature sufficient to melt the hard fats and can be empirically determined based on the melting point of the hard fat used in the formulation. […]
row,solubility using a formulation disclosed herein,Structure (SMILES)
1,soluble,COc1cc(/C=C/C(=O)CC(=O)/C=C/c2ccc(O)c(OC)c2)ccc1O [Curcumin]

# Test: Oleic acid miscibility / self-emulsification in dissolution media modelling ICH dissolution testing
# Assay type: physicochemical
# Details: 1 g (100% or 75%) in one liter PBS with […] curcumin, 37° C., 300 rpm 10 minutes, then 10 minutes without stirring
# Description: To assess whether oleic acid could self-emulsify at the concentrations used in the disclosed pharmaceutical compositions, experiments was performed that were designed to model dissolution testing according to International Council for Harmonisation (ICH) guidelines. […] Miscibility experiments were performed using two concentrations of oleic acid nominally above the CMC concentration for this fatty acid. In one series of experiments, 1 g of 100% oleic acid was added to the dissolution media. The control compound was 1 g of 100% MAISINE™ CC. In a second series of experiments 1 g of 75% oleic acid (diluted with 250 mg of MAISINE™ CC) was added to the dissolution media. The control compound was 1 g of 75% MAISINE™ CC. The miscibility of oleic acid and MAISINE™ CC was assessed by observing the dissolution media for 10 minutes with constant stirring and then 10 minutes without stirring. Photographs were taken at time 0, 1, 2, 3, 4, 5 and 10 minutes during the stirring phase and 2, 4 and 10 minutes after stirring ceased.
# Both oleic acid preparations quickly distributed throughout the PBS in small but clearly defined lipid droplets which were still observable after 10 minutes of stirring. On cessation of stirring, the lipid droplets either adhered to the stirrer or floated to the top of the PBS, with the bulk of the PBS clearing. […]
row,miscibility in the dissolution media,Structure (SMILES)
1,not miscible,CCCCCCCC/C=C\CCCCCCCC(=O)O [oleic acid]

# Test: Solubility of therapeutic compound in heated lipids in the absence of cholic acid (visual)
# Details: 60° C., stirred at least 60 minutes; only MAISINE CC and MAISINE CC/GELUCIRE 43/01 in ratios of 2:1 to 1:2
# Description: ® 43/01, was then added in a stepwise fashion of 6 g to this lipid mixture until the total amount reached 24 g. […]
row,Structure (SMILES),solubility in heated lipid in the absence of cholic acid (visual)
1,Clc1ccc(CCCOCCCN2CCCCC2)cc1 [pitolosant],remained insoluble
2,CC(=O)OC[C@H]1O[C@@H]([S-])[C@H](OC(C)=O)[C@@H](OC(C)=O)[C@@H]1OC(C)=O.CCP(CC)CC.[Au+] [Auranofin],remained insoluble

# Test: not given
# Details: Biopharmaceutics Classification System class; cited from earlier work
row,Structure (SMILES),BCS
1,Cc1ccc(=O)n(-c2ccccc2)c1 [Pirfenidone],I
2,C[C@H](O)[C@H](O)[C@H]1CNc2nc(N)[nH]c(=O)c2N1 [Sapropterin],I
3,COC(=O)c1ccc2c(c1)NC(=O)/C2=C(\Nc1ccc(N(C)C(=O)CN2CCN(C)CC2)cc1)c1ccccc1 [Nintedanib],II or IV
4,CC(C)NCC(O)COc1cccc2ccccc12 (centres unmarked) [Propranolol],I
5,CCCCCCCC(=O)N[C@H](CN1CCCC1)[C@H](O)c1ccc2c(c1)OCCO2 [Eliglustat],I or III
6,CN(C)CCC=C1c2ccccc2CCc2ccccc21 [Amitriptyline],I
7,O=C(O)c1cccnc1 [Niacin],I
8,Clc1ccc(CCCOCCCN2CCCCC2)cc1 [Pitolisant],I
9,CN(C)C(=N)N=C(N)N [Metformin],I

# Test: not given
# Details: reported value; cited from earlier work
row,Structure (SMILES),critical micellar concentration (CMC)
1,CCCCCCCCCCCCCCCCCC(=O)[O-].[Na+] [sodium stearate],71 µM
2,CCCCCCCC/C=C\CCCCCCCC(=O)O [oleic acid],2300 µM

# Test: not given
# Details: previous studies; cited from earlier work
row,Structure (SMILES),solubility in a glycerolipid admixture of MAISINE CC and GELUCIRE 43/01
1,C=C(C)[C@@H]1CCC(C)=C[C@H]1c1c(O)cc(CCCCC)cc1O [cannabidiol],soluble

# Test: not given
# Details: cited from earlier work
row,Structure (SMILES),Log P
1,Cc1ccc(=O)n(-c2ccccc2)c1 [Pirfenidone],>1
2,CC(C)OC(=O)C(C)(C)Oc1ccc(C(=O)c2ccc(Cl)cc2)cc1 [Fenofibrate],>1
3,O=C(NC(Cc1cc(=O)[nH]c2ccccc12)C(=O)O)c1ccc(Cl)cc1 (centres unmarked) [Rebamipide],>1
4,NCCc1c[nH]c2ccc(O)cc12 [Serotonin],<1
5,C[C@H](O)[C@H](O)[C@H]1CNc2nc(N)[nH]c(=O)c2N1 [Sapropterin],<1
6,COc1cc(/C=C/C(=O)CC(=O)/C=C/c2ccc(O)c(OC)c2)ccc1O [Curcumin],>1
7,O=C(C1CCCCC1)N1CC(=O)N2CCc3ccccc3C2C1 (centres unmarked) [Praziquantel],>1
8,COC(=O)c1ccc2c(c1)NC(=O)/C2=C(\Nc1ccc(N(C)C(=O)CN2CCN(C)CC2)cc1)c1ccccc1 [Nintedanib],>1
9,COc1ccc2[nH]c([S+]([O-])Cc3ncc(C)c(OC)c3C)nc2c1 (centres unmarked) [Omeprazole],>1
10,C[C@]12CC[C@H](O)CC1=CC[C@@H]1[C@@H]2CC[C@]2(C)C(c3cccnc3)=CC[C@@H]12 [Abiraterone],>1
11,COC(=O)Nc1nc2ccc(C(=O)c3ccccc3)cc2[nH]1 [Mebendazole],>1
12,CCCCCCCC(=O)N[C@H](CN1CCCC1)[C@H](O)c1ccc2c(c1)OCCO2 [Eliglustat],>1
13,Cc1ccc(C)c(OCCCC(C)(C)C(=O)O)c1 [Gemfibrozil],>1
14,C[C@@H](O[C@H]1OCCN(Cc2n[nH]c(=O)[nH]2)[C@H]1c1ccc(F)cc1)c1cc(C(F)(F)F)cc(C(F)(F)F)c1 [Aprepitant],>1
15,CN(C)CCC=C1c2ccccc2CCc2ccccc21 [Amitriptyline],>1
16,O=C(c1ccc(OCCN2CCCCC2)cc1)c1c(-c2ccc(O)cc2)sc2cc(O)ccc12 [Raloxifene],>1
17,O=C(O)c1cccnc1 [Niacin],<1
18,CC(=O)[C@H]1CC[C@H]2[C@@H]3CCC4=CC(=O)CC[C@]4(C)[C@H]3CC[C@]12C [Progesterone],>1
19,Clc1ccc(CCCOCCCN2CCCCC2)cc1 [Pitolisant],>1
20,O=C(c1cc(Cc2n[nH]c(=O)c3ccccc23)ccc1F)N1CCN(C(=O)C2CC2)CC1 [Olaparib],>1
21,CO[C@@H]1[C@H](N(C)C(=O)c2ccccc2)C[C@H]2O[C@]1(C)n1c3ccccc3c3c4c(c5c6ccccc6n2c5c31)C(=O)NC4 [Midostaurin],>1
22,CC1=C(/C=C/C(C)=C/C=C/C(C)=C/C(=O)O)C(C)(C)CCC1 [Retinoic acid],>1
23,N[C@@H](Cc1c[nH]c2ccccc12)C(=O)O [Tryptophan],<1
24,CO[C@@H]1[C@@H](OC(N)=O)[C@@H](O)[C@H](Oc2ccc3c(O)c(NC(=O)c4ccc(O)c(CC=C(C)C)c4)c(=O)oc3c2C)OC1(C)C [Novobiocin],>1
25,CC(C)c1ccc2oc3nc(N)c(C(=O)O)cc3c(=O)c2c1 [Amlexanox],>1
26,CC(C)(C)c1cc(NC(=O)Nc2ccc(Oc3ccnc4[nH]c(=O)cnc34)cc2F)n(-c2cccc(F)c2)n1 [CCT3833],>1

# Test: Incorporation of therapeutic compound into glycerolipid formulations with digestion enhancers (visual; cooling and remelting)
# Details: 40 mg in 1.0 g MAISINE CC with 1.5 g oleic acid and 100 or 150 mg sodium oleate or sodium stearate, about 130° C., no cholic acid or lecithin
row,incorporation into heated glycerolipid mixture (visual),Structure (SMILES)
1,failed to incorporate,COC(=O)c1ccc2c(c1)NC(=O)/C2=C(\Nc1ccc(N(C)C(=O)CN2CCN(C)CC2)cc1)c1ccccc1 [nintedanib esylate]

# Same assay, conditions: 40 mg in 1.0 g MAISINE CC with 1.5 g oleic acid, sodium oleate or sodium stearate, and 30 mg of cholic acid or 30 mg lecithin, about 130° C.
row,incorporation into heated glycerolipid mixture (visual),Structure (SMILES)
1,became soluble,COC(=O)c1ccc2c(c1)NC(=O)/C2=C(\Nc1ccc(N(C)C(=O)CN2CCN(C)CC2)cc1)c1ccccc1 [nintedanib esylate]

# Same assay, conditions: 50 mg with 40 mg cholic acid added to 500 mg MAISINE CC and 1,000 mg GELUCIRE 43/01 together, about 120° C. to about 160° C.
row,incorporation into heated glycerolipid mixture (visual),Structure (SMILES)
1,failed to incorporate,C[C@@H](O[C@H]1OCCN(Cc2n[nH]c(=O)[nH]2)[C@H]1c1ccc(F)cc1)c1cc(C(F)(F)F)cc(C(F)(F)F)c1 [Aprepitant]

# Same assay, conditions: 50 mg with 40 mg cholic acid in 500 mg MAISINE CC, about 120° C. to about 160-170° C., then GELUCIRE 43/01 up to 1,000 mg
row,behaviour on stepwise hard fat addition (visual),Structure (SMILES)
1,remained in solution,C[C@@H](O[C@H]1OCCN(Cc2n[nH]c(=O)[nH]2)[C@H]1c1ccc(F)cc1)c1cc(C(F)(F)F)cc(C(F)(F)F)c1 [Aprepitant]

# Same assay, conditions: 60 mg dissolved in 500 mg MAISINE CC without cholic acid, about 120° C. to about 160° C., then GELUCIRE 43/01 up to 1,000 mg
row,behaviour on stepwise hard fat addition (visual),Structure (SMILES)
1,precipitate,C[C@@H](O[C@H]1OCCN(Cc2n[nH]c(=O)[nH]2)[C@H]1c1ccc(F)cc1)c1cc(C(F)(F)F)cc(C(F)(F)F)c1 [Aprepitant]

# Same assay, conditions: 393 mg alone added to 500 mg MAISINE CC and 1,000 mg GELUCIRE 43/01, about 130° C.
row,incorporation into heated glycerolipid mixture (visual),Structure (SMILES)
1,failed to incorporate,COc1ccc2cc([C@H](C)C(=O)O)ccc2c1 [naproxen sodium]

# Same assay, conditions: MAISINE CC, fatty acid component, cholic acid and GELUCIRE 43/01; 130° C., cooled, remelted at 50° C.
row,appearance on remelting of the solid composition (visual),Structure (SMILES)
1,no precipitate formation,O=C(c1cc(Cc2n[nH]c(=O)c3ccccc23)ccc1F)N1CCN(C(=O)C2CC2)CC1 [Olaparib]

# Same assay, conditions: MAISINE CC, oleic acid and GELUCIRE 43/01 without cholic acid; 130° C., cooled to room temperature
row,behaviour on cooling and solidification (visual),Structure (SMILES)
1,precipitated out of solution,O=C(c1cc(Cc2n[nH]c(=O)c3ccccc23)ccc1F)N1CCN(C(=O)C2CC2)CC1 [Olaparib]
